Results taken from patent publication US7914797B2 (priority 2005, dated 2011).

Molecular target: HLA-A2 on T2 cells (Homo sapiens, UniProt P04439, D140Y/D185E/D98H/E176V/E277Q/G131W/G231S/I119V/I121R/I166T/I218V/L300P/L318F/N151K/N90K/P208A/P217A/Q86G/Q94H/R138H/R169H/T345S)
Assay type: binding

Sequence	binding of peptide to HLA-A2 on T2 cells
ELRSRYWAI [NP 380-388]	some low binding capacity, which was not dose dependent
LLTEVETYV [M1 3-11]	High and dose dependent binding
PKYVKQNTLKLAT [HA 307-319]	some low binding capacity, which was not dose dependent
SKAYSNCYPYDVPDYASL [HA 91-108 peptide]	binding capacity only at the higher (100 μM) concentration
